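Briefly, cells in 96-well plates were exposed to five compound concentrations for 48 h, and endpoints were estimated by linear interpolation. At the GI50, growth is halved.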 The source made the active and inactive calls. No stated cut-off is given here; in the data, active = GI50 up to about 1.1 µM and inactive = higher.
Experiments:
Test in all cases: DTP human tumour cell line panel, 48 h
A498 = test system: A498
A549 = test system: A549
CAKI-1 = test system: CAKI-1
DU-145 = test system: DU-145
HCT-15 = test system: HCT-15
HOP-92 = test system: HOP-92
IGROV-1 = test system: IGROV-1
KM12 = test system: KM12
LOX IMVI = test system: LOX IMVI
Malme-3M = test system: Malme-3M
NCI-H226 = test system: NCI-H226
NCI-H460 = test system: NCI-H460
NCI-H522 = test system: NCI-H522
NCI/ADR-RES = test system: NCI/ADR-RES
OVCAR-5 = test system: OVCAR-5
PC-3 = test system: PC-3
RXF 393 = test system: RXF 393
SK-MEL-28 = test system: SK-MEL-28
SK-OV-3 = test system: SK-OV-3
UACC-257 = test system: UACC-257
786-0 = test system: 786-0
ACHN = test system: ACHN
CCRF-CEM = test system: CCRF-CEM
COLO 205 = test system: COLO 205
EKVX = test system: EKVX
HCT-116 = test system: HCT-116
HL-60 = test system: HL-60
HOP-62 = test system: HOP-62
HT-29 = test system: HT-29
Hs-578T = test system: Hs-578T
M14 = test system: M14
MCF7 = test system: MCF7
MDA-MB-231 = test system: MDA-MB-231
MDA-MB-435 = test system: MDA-MB-435
MDA-N = test system: MDA-N
NCI-H23 = test system: NCI-H23
OVCAR-3 = test system: OVCAR-3
OVCAR-4 = test system: OVCAR-4
OVCAR-8 = test system: OVCAR-8
RPMI-8226 = test system: RPMI-8226
SF-268 = test system: SF-268
SF-295 = test system: SF-295
SF-539 = test system: SF-539
SK-MEL-2 = test system: SK-MEL-2
SK-MEL-5 = test system: SK-MEL-5
SN12C = test system: SN12C
SNB-19 = test system: SNB-19
SNB-75 = test system: SNB-75
SW-620 = test system: SW-620
T47D = test system: T47D
TK-10 = test system: TK-10
U-251 = test system: U-251
UACC-62 = test system: UACC-62
UO-31 = test system: UO-31
HCC 2998 = test system: HCC 2998
K562 = test system: K562
MOLT-4 = test system: MOLT-4
SR = test system: SR

Measured: GI50

CN(C)C1C(=O)C(C(N)=O)=C(O)C2(O)C(O)=C3C(=O)c4c(O)cccc4C(C)(O)C3CC12 (centres undefined)
inactive: A498 43.8 µM | A549 60.8 µM | CAKI-1 38.7 µM | DU-145 68.4 µM | HOP-92 > 100 µM | IGROV-1 52.8 µM | KM12 73.8 µM | LOX IMVI 33.7 µM | Malme-3M 67.3 µM | NCI-H226 82.6 µM | NCI-H460 52 µM | NCI-H522 78 µM | NCI/ADR-RES 76.4 µM | OVCAR-5 > 100 µM | PC-3 > 100 µM | RXF 393 43.6 µM | SK-MEL-28 93.5 µM | SK-OV-3 76.6 µM | UACC-257 > 100 µM
50.5 µM: HCT-15

Cc1cn2c(/C=N/NC(=N)N)c(-c3ccc([N+](=O)[O-])cc3)nc2s1
inactive: A498 1.52 µM | A549 1.66 µM | ACHN 1.49 µM | CAKI-1 2.61 µM | DU-145 2.49 µM | HL-60 1.53 µM | HOP-62 1.29 µM | HT-29 1.32 µM | M14 1.17 µM | MDA-MB-435 1.57 µM | Malme-3M 1.39 µM | NCI-H226 1.87 µM | NCI-H23 1.59 µM | NCI-H460 1.76 µM | NCI/ADR-RES 4.04 µM | OVCAR-3 1.65 µM | PC-3 1.4 µM | RPMI-8226 1.42 µM | SF-268 1.64 µM | SF-295 1.46 µM | SF-539 1.68 µM | SK-MEL-28 1.57 µM | SK-MEL-2 1.36 µM | SK-MEL-5 1.36 µM | SK-OV-3 1.76 µM | SN12C 1.46 µM | TK-10 1.57 µM | UACC-257 1.18 µM | UACC-62 1.72 µM | UO-31 1.95 µM
1.46 µM: HCT-15
active: 786-0 0.256 µM | CCRF-CEM 0.194 µM | COLO 205 0.685 µM | EKVX 0.338 µM | HCT-116 0.227 µM | HOP-92 0.641 µM | Hs-578T 0.935 µM | KM12 0.401 µM | LOX IMVI 0.352 µM | MCF7 0.252 µM | MDA-MB-231 0.385 µM | MDA-N 0.425 µM | OVCAR-4 0.169 µM | OVCAR-5 0.785 µM | OVCAR-8 0.149 µM | RXF 393 0.914 µM | SNB-19 0.357 µM | SNB-75 0.509 µM | SW-620 0.175 µM | T47D 0.566 µM | U-251 0.995 µM

O=C1/C(=C/c2ccc(Cl)cc2)N=C(c2ccccc2)N1c1nc2ccccc2s1
inactive: 786-0 > 100 µM | A498 30.5 µM | ACHN 62.5 µM | CAKI-1 58.9 µM | CCRF-CEM 47.1 µM | DU-145 78.2 µM | EKVX > 100 µM | HCC 2998 42.7 µM | HCT-116 40.7 µM | HL-60 4.03 µM | HOP-62 > 100 µM | HOP-92 66.4 µM | HT-29 64.1 µM | Hs-578T 20 µM | IGROV-1 34.4 µM | K562 26.4 µM | KM12 61.9 µM | LOX IMVI 43.6 µM | M14 69.8 µM | MCF7 40.1 µM | MDA-MB-231 67.8 µM | MDA-MB-435 53 µM | MDA-N 39 µM | NCI-H226 49.7 µM | NCI-H23 30.4 µM | NCI-H460 57.4 µM | NCI-H522 24.4 µM | NCI/ADR-RES 34 µM | OVCAR-3 38.5 µM | OVCAR-4 53.1 µM | OVCAR-5 > 100 µM | OVCAR-8 59.4 µM | PC-3 29.9 µM | RPMI-8226 39.7 µM | RXF 393 > 100 µM | SF-268 38.4 µM | SF-295 40.4 µM | SF-539 > 100 µM | SK-MEL-28 52.6 µM | SK-MEL-2 28.3 µM | SK-MEL-5 31.6 µM | SK-OV-3 > 100 µM | SNB-75 77.3 µM | SW-620 64 µM | T47D 46.8 µM | TK-10 56.2 µM | U-251 42.8 µM | UACC-257 35.6 µM | UO-31 37.3 µM
47.8 µM: HCT-15
active: MOLT-4 0.548 µM | SR 0.0537 µM
